Results reported in publication PMC4829596 (Frontiers in Microbiology, 2016).
Values after ≈ are worked out from the molar mass of the structure shown. Like-named read-outs stand apart in the source and are kept apart here.

Key:
[1] = system: S. aureus; assay: Determination of MIC; assay type: cell-based, Staphylococcus aureus; settings: for MIC: Staphylococcus aureus
Procedure: (§1) Minimal inhibitory concentrations (MICs) of purified compounds and commercially available standards were assessed against S. aureus, C. albicans, P. aeruginosa, K. pneumoniae, E. coli, ESBL K. pneumoniae, ESBL E. coli and the two MRSA strains (B337919 and B335466). Stock solutions of 5 × 10^6 μg/l of p-hydroxybenzaldehyde, and phenyllactic acid were prepared using water. Stock solutions of 1 × 10^8 μg/l indole-3-carboxylic acid, PAA and indole-3-acetic acid were prepared using methanol and diluted with water (working solution of 5 × 10^6 μg/l). Stocks of 1 × 10^6 μg/l of cFP and cPM were dissolved in water. […] Methanol and water were used as control.

[2] = system: MRSA Staphylococcus (S.) aureus B335466; assay: Determination of MIC; assay type: cell-based
Procedure: as §1

[3] = system: MRSA Staphylococcus (S.) aureus B337919; assay: Determination of MIC; assay type: cell-based
Procedure: as §1

[4] = system: P. aeruginosa; assay: Determination of MIC; assay type: cell-based, Pseudomonas aeruginosa; settings: for MIC: Pseudomonas aeruginosa
Procedure: as §1

[5] = system: C. albicans; assay: Determination of MIC; assay type: cell-based, Candida albicans; settings: for MIC: Candida albicans
Procedure: as §1

[6] = system: E. coli; assay: Determination of MIC; assay type: cell-based, Escherichia coli; settings: for MIC: Escherichia coli
Procedure: as §1

[7] = system: ESBL E. coli; assay: Determination of MIC; assay type: cell-based, Escherichia coli; settings: for MIC: Escherichia coli
Procedure: as §1

[8] = system: ESBL K. pneumoniae; assay: Determination of MIC; assay type: cell-based, Klebsiella pneumoniae; settings: for MIC: Klebsiella pneumoniae
Procedure: as §1

[9] = system: K. pneumoniae; assay: Determination of MIC; assay type: cell-based, Klebsiella pneumoniae; settings: for MIC: Klebsiella pneumoniae
Procedure: as §1

[10] = system: human hepatocytic (HepG2) cells; assay: Cytotoxicity assay, lactate dehydrogenase release; assay type: cell-based; settings: for % of living HepG2 cells: 24 h, LDH
Procedure: (§2) Cytotoxicity of the fungal extract and the identified compounds was determined measuring lactate dehydrogenase release using human intestinal epithelial (Caco2) and human hepatocytic (HepG2) cells. […] Cells were seeded into 96-well plates (5 × 10^4 cells per well) and incubated until a confluent cell layer had developed. After discarding of the media cells were incubated with 50 μl of media and 50 μl of fungal extract or compound (final concentration: PAA 2 × 10^6 μg/l, 4FP 2 × 10^6 μg/l, ICA 2 × 10^6 μg/l, IAA 2 × 10^5 μg/l, PLA 2 × 10^6 μg/l, cPM 2 × 10^6μg/l and cFP 2 × 10^6 μg/l) for 24 h at 37°C. […] LDH release was measured according to the manufacturer’s protocol (Sigma–Aldrich, USA).

[11] = system: human intestinal epithelial (Caco2) cells; assay: Cytotoxicity assay, lactate dehydrogenase release; assay type: cell-based; settings: for dead cells: at the determined MIC concentrations, Caco2; for % of living Caco2 cells: 24 h, LDH
Procedure: as §2

[12] = system: Caco2 cells; assay: XTT assay, metabolic active cells; assay type: cell-based, human; settings: for % of metabolic active Caco2 cells: XTT
Procedure: (§3) In parallel the % of metabolic cells was measured using the XTT [2,3-Bis-(2-methoxy-4-nitro-5-sulfophenyl)-2H-tetra zolium-5-carboxanilide] assay (Thermo Scientific). Briefly, after treatment with the fungal extract or the different compounds cells were incubated with XTT and phenanzine methosulfate (Thermo Scientific) for 2 h. Absorbance was measured at 450 nm and % of metabolic active cells was calculated versus the control sample (media). As controls we incubated the cells without fungal cultures or compound, and with VPA alone.

[13] = system: HepG2 cells; assay: XTT assay, metabolic active cells; assay type: cell-based, human
Procedure: as §3

[14] = system: Caco2 and HepG2 cells; assay type: cell-based; settings: at the determined MIC concentrations; range over compounds and cell lines
Procedure: as §2

[15] = system: acetylation of histone H3 K9 and K14; assay: Histone posttranslational modifications by Western blot; assay type: cell-based, Doratomyces microsporus; settings: VPA-treated D. microsporus cultures, 24, 48, 72 h
Procedure: Mycelia from the D. microsporus cultures were harvested after 24, 48, and 72 h by filtration and frozen in liquid nitrogen. Histones were extracted under acidic conditions as described by [Honda and Selker (2008)]. Samples were suspended in Laemmli’s SDS sample buffer and quantified with Pierce BCA Protein Assay (Thermo Scientific). Fifteen microgram of purified histones were separated on 15% SDS-PAGE gel and subsequently transferred to nitrocellulose membrane (GE Healthcare) by electroblotting. Histone H3 acetylation (H3Ac) was detected with primary antibody specific to H3Ac (Millipore, 06-599). As a loading control histone H3 C-terminus was detected with anti H3 C-terminus antibody (Abcam, 1791). The primary antibodies were identified with anti- rabbit (Sigma–Aldrich, A0545) horseradish peroxidase (HRP) conjugated secondary antibody. Chemiluminescence was detected with Clarity^TM ECL Western Substrate and ChemiDoc^TM XRS (Bio- Rad).

[16] = system: MRSA strain B335466; assay: Ampicillin MIC alone and in combination; assay type: cell-based; settings: Staphylococcus aureus
Procedure: (§4) Furthermore we studied the ability of PAA, cPM and cFP to increase antimicrobial activity of ampicillin against both ESBL and MRSA strains. The combination of cPM (100 mg/l) with ampicillin decreased the MIC value from 100 to 10 mg/l against the MRSA strain B335466 (Figure 5C).

[17] = system: MRSA strain B337919; assay: Ampicillin MIC alone and in combination; assay type: cell-based; settings: Staphylococcus aureus
Procedure: as §4

[18] = system: ESBL E. coli strain; assay: Ampicillin in combination; assay type: cell-based, Escherichia coli; settings: ampicillin combined with PAA, cPM or cFP
Procedure: as §4

[19] = system: ESBL K. pneumoniae strain; assay: Ampicillin in combination; assay type: cell-based, Klebsiella pneumoniae; settings: ampicillin combined with PAA, cPM or cFP
Procedure: as §4

[20] = system: higher fungi; design: method as in Strom et al., 2002; settings: ref Strom et al., 2002; cited from earlier work
[21] = system: Bacillus subtilis, S. aureus and Micrococcus luteus; design: method as in Jayatilake et al., 1996; Thomas et al., 2010; settings: ref Jayatilake et al., 1996; Thomas et al., 2010; cited from earlier work
[22] = design: method as in Rodloff et al., 2008; settings: ref Rodloff et al., 2008; cited from earlier work
[23] = ESBL K. pneumoniae, read-out: MIC

Molecule | MIC ([1]; S. aureus, read-out: MIC) [µg/mL] | MIC ([2]; MRSA 335, read-out: MIC) [µg/mL] | MIC ([3]; MRSA 337, read-out: MIC) [µg/mL] | MIC [4] [µg/mL] | MIC ([6]; E. coli, read-out: MIC) [µg/mL] | MIC ([7]; ESBL E. coli, read-out: MIC) [µg/mL] | MIC [8, 23] [µg/mL] | MIC ([9]; K. pneumoniae, read-out: MIC) [µg/mL] | % of living HepG2 cells ([10]; compound 2mg/ml) [%] | % of living Caco2 cells ([11]; compound 2mg/ml) [%] | % of metabolic active Caco2 cells ([12]; compound 2mg/ml) [%] | % of metabolic active HepG2 cells ([13]; compound 2mg/ml) [%] | dead cells [14] | further results
O=Cc1ccc(O)cc1 [4FP, p-hydroxybenzaldehyde] | 2000 (≈ 16.4 mM) | 2500 (≈ 20.5 mM) | 2500 (≈ 20.5 mM) | 2500 (≈ 20.5 mM) | 2500 (≈ 20.5 mM) | 2500 (≈ 20.5 mM) | 2500 (≈ 20.5 mM) | 2500 (≈ 20.5 mM) | 7.86 | 25.94 | 32.06 | 57.33 |  | MIC ([5]; C. albicans, read-out: MIC): 1000 µg/mL (≈ 8.19 mM); dead cells [11]: 25.9%; metabolic active cells ([12]; human): 57.3%
O=C(O)Cc1c[nH]c2ccccc12 [IAA, indole-3-acetic acid] | 400 (≈ 2.28 mM) |  |  | 2000 (≈ 11.4 mM) | 1750 (≈ 9.99 mM) | 1750 (≈ 9.99 mM) | 2000 (≈ 11.4 mM) | 400 (≈ 2.28 mM) |  |  |  |  |  | MIC ([2]; MRSA 335): 400 µg/mL (≈ 2.28 mM); MIC ([2]; MRSA strain B335466, read-out: MIC): 400 µg/mL (≈ 2.28 mM); MIC ([3]; MRSA 337): 200 µg/mL (≈ 1.14 mM); MIC ([3]; MRSA strain B337919, read-out: MIC): 200 µg/mL (≈ 1.14 mM); MIC ([5]; C. albicans, read-out: MIC): 400 µg/mL (≈ 2.28 mM); % of living HepG2 cells ([10]; compound 0.2mg/ml): 7.27 ± 1.77%; % of living Caco2 cells ([11]; compound 0.2mg/ml): 8.61%; % of metabolic active Caco2 cells ([12]; compound 0.2mg/ml): 103.64%; % of metabolic active HepG2 cells ([13]; compound 0.2mg/ml): 108.28%
O=C(O)c1c[nH]c2ccccc12 [ICA, indole-3-carboxylic acid] | 2000 (≈ 12.4 mM) | 2000 (≈ 12.4 mM) | 2000 (≈ 12.4 mM) | 2000 (≈ 12.4 mM) | 1000 (≈ 6.21 mM) | 1000 (≈ 6.21 mM) | 2000 (≈ 12.4 mM) | 2000 (≈ 12.4 mM) | 4.86 | 8.36 | 97.59 | 122.3 | 3.99–8.61% | 
O=C(O)Cc1ccccc1 [PAA, phenylacetic acid] |  |  |  |  |  |  |  |  | 6.99 | 6.53 | 113.54 | 122.9 | 3.99–8.61% | MIC [1]: 2000 µg/mL (≈ 14.7 mM); MIC [2]: 2000 µg/mL (≈ 14.7 mM); MIC [3]: 2000 µg/mL (≈ 14.7 mM); MIC [5]: 2500 µg/mL (≈ 18.4 mM); MIC [6]: 2000 µg/mL (≈ 14.7 mM); MIC [7]: 2000 µg/mL (≈ 14.7 mM); MIC [8]: 2500 µg/mL (≈ 18.4 mM); MIC [9]: 2500 µg/mL (≈ 18.4 mM)
O=C(O)C(O)Cc1ccccc1 (stereo not drawn) [PLA, phenyllactic acid] | 2000 (≈ 12 mM) | 2000 (≈ 12 mM) | 2000 (≈ 12 mM) | 5000 (≈ 30.1 mM) | 2500 (≈ 15 mM) | 5000 (≈ 30.1 mM) | 5000 (≈ 30.1 mM) | 2500 (≈ 15 mM) | 54.63 | 19.65 | 41.48 | 66.01 |  | dead cells ([10]; at the determined MIC concentrations, HepG2): 54.63%; dead cells [11]: 19.7%
CCCC(CCC)C(=O)O [VPA, valproic acid] |  |  |  |  |  |  |  |  |  |  |  |  |  | acetylation of the N-terminal lysines of histone 3 compared to the untreated control culture [15]: could not detect any significant increase in acetylation
CC1(C)S[C@@H]2[C@H](NC(=O)[C@H](N)c3ccccc3)C(=O)N2[C@H]1C(=O)O [ampicillin] |  |  |  |  |  |  |  |  |  |  |  |  |  | MIC ([16]; ampicillin alone): 100 µg/mL; MIC ([16]; combined with PAA (1 g/l)): 50 µg/mL; MIC ([16]; combined with cPM (100 mg/l)): 10 µg/mL; MIC ([17]; ampicillin alone): 100 µg/mL; MIC ([17]; combined with cPM (2 g/l)): 50 µg/mL; synergistic or additive effect [18]: No synergistic or additive effect; synergistic or additive effect [19]: No synergistic or additive effect
O=C1NC(Cc2ccccc2)C(=O)N2CCCC12 [cFP, cyclo-(L-phenylalanine-L-proline)] |  |  |  |  |  |  |  |  | 5.11 | 4.28 | 106.66 | 116.63 | 3.99–8.61% | Inhibitory concentration ([1]; lowest concentration at which the inhibitory effect was detectable, S. aureus): 2 g/L; Inhibitory concentration ([2]; lowest concentration at which the inhibitory effect was detectable, MRSA 335): 2 g/L; Inhibitory concentration ([3]; lowest concentration at which the inhibitory effect was detectable, MRSA 337): 2 g/L; Inhibitory concentration ([4]; lowest concentration at which the inhibitory effect was detectable): 5 g/L; Inhibitory concentration ([5]; lowest concentration at which the inhibitory effect was detectable, C. albicans): 2.5 g/L; Inhibitory concentration ([6]; lowest concentration at which the inhibitory effect was detectable, E. coli): 5 g/L; Inhibitory concentration ([7]; lowest concentration at which the inhibitory effect was detectable, ESBL E. coli): 5 g/L; Inhibitory concentration ([8]; lowest concentration at which the inhibitory effect was detectable, ESBL K. pneumoniae): 3 g/L; Inhibitory concentration ([9]; lowest concentration at which the inhibitory effect was detectable, K. pneumoniae): 3 g/L; MIC [20]: 20000 µg/mL (≈ 81.9 mM); antimicrobial activity [21]: no antimicrobial activity
C[C@H]1COc2c(N3CCN(C)CC3)c(F)cc3c(=O)c(C(=O)O)cn1c23 [levofloxacin] |  |  |  |  |  |  |  |  |  |  |  |  |  | accepted MIC values for antibiotics in clinical use [22]: 0.003 µg/mL
co-trimoxazole |  |  |  |  |  |  |  |  |  |  |  |  |  | accepted MIC values for antibiotics in clinical use [22]: 100 µg/mL
